Patent US6245917A, “Crystalline sodium phenytoin monohydrate” (Warner-Lambert Company, priority 1999, dated 2001)

Test: Repeated water uptake study with solvent-free SPM (dichloromethane preparation)
Assay type: physicochemical
Excerpt: Study of weight change under controlled humidity conditions, samples were placed in open vials, which were placed in closed controlled-humidity jars. Relative humidities were controlled using saturated aqueous salt solutions: 58% RH, NaBr; 75% RH, (NH4)2 SO4; 76%, sodium acetate; 84% RH, KBr.
A possible cause of the observed weight loss is that some reaction solvent (toluene in this case) from the preparation of SPM remained on the solid and evaporated in the humidity jars. To test this theory, it was decided to prepare SPM, show it to be solvent-free, and repeat the water uptake studies. Dichloromethane was chosen as the organic solvent for the preparation rather than toluene because its lower boiling point should allow it to be removed from the solid more easily and completely. SPM was made by stirring a slurry of SPA and one equivalent of water in dichloromethane for 2 days, then isolation by filtration and air-drying of the solid SPM.
The remainder of the SPM sample was allowed to dry in an open jar under ambient conditions for about 1 week. It was then characterized by XRPD elemental analysis, and Karl Fischer (KF) analysis. The sample appears to be pure SPM containing very little, if any, residual solvent.
Both SPM and SPA increased in weight about 20% when equilibrium was reached (constant weight) at each humidity utilized. The samples were analyzed by XRPD after completion of the water uptake experiments. […] The nature of this form has not been determined.

Compound: O=C1NC(=O)C(c2ccccc2)(c2ccccc2)N1 [SPM, sodium phenytoin monohydrate]
- sample weight (58% RH, day 0 (starting weight), monohydrate): 1.5057 g
- change in starting weight (58% RH, day 1, monohydrate): +0.0186 g
- sample weight (58% RH, day 1, monohydrate): 1.5243 g
- change in starting weight (58% RH, day 2, monohydrate): +0.0269 g
- sample weight (58% RH, day 2, monohydrate): 1.5326 g
- change in starting weight (58% RH, day 3, monohydrate): +0.0384 g
- sample weight (58% RH, day 3, monohydrate): 1.5441 g
- change in starting weight (58% RH, day 4, monohydrate): +0.0510 g
- sample weight (58% RH, day 4, monohydrate): 1.5567 g
- change in starting weight (58% RH, day 5, monohydrate): +0.0620 g
- sample weight (58% RH, day 5, monohydrate): 1.5677 g
- change in starting weight (58% RH, day 6, monohydrate): +0.0717 g
- sample weight (58% RH, day 6, monohydrate): 1.5774 g
- change in starting weight (58% RH, day 7, monohydrate): +0.0816 g
- sample weight (58% RH, day 7, monohydrate): 1.5873 g
- change in starting weight (58% RH, day 8, monohydrate): +0.0940 g
- sample weight (58% RH, day 8, monohydrate): 1.5997 g
- change in starting weight (58% RH, day 10, monohydrate): +0.1185 g
- sample weight (58% RH, day 10, monohydrate): 1.6242 g
- change in starting weight (58% RH, day 11, monohydrate): +0.1340 g
- sample weight (58% RH, day 11, monohydrate): 1.6397 g
- change in starting weight (58% RH, day 12, monohydrate): +0.1486 g
- sample weight (58% RH, day 12, monohydrate): 1.6543 g
- change in starting weight (58% RH, day 13, monohydrate): +0.1555 g
- sample weight (58% RH, day 13, monohydrate): 1.6612 g
- change in starting weight (58% RH, day 14, monohydrate): +0.1633 g
- sample weight (58% RH, day 14, monohydrate): 1.6690 g
- change in starting weight (58% RH, day 15, monohydrate): +0.1719 g
- sample weight (58% RH, day 15, monohydrate): 1.6776 g
- change in starting weight (58% RH, day 16, monohydrate): +0.1794 g
- sample weight (58% RH, day 16, monohydrate): 1.6851 g
- change in starting weight (58% RH, day 17, monohydrate): +0.1860 g
- sample weight (58% RH, day 17, monohydrate): 1.6917 g
- change in starting weight (58% RH, day 21, monohydrate): +0.2176 g
- sample weight (58% RH, day 21, monohydrate): 1.7233 g
- change in starting weight (58% RH, day 23, monohydrate): +0.2323 g
- sample weight (58% RH, day 23, monohydrate): 1.7380 g
- change in starting weight (58% RH, day 26, monohydrate): +0.2525 g
- sample weight (58% RH, day 26, monohydrate): 1.7582 g
- change in starting weight (58% RH, day 35): +0.2556 g
- sample weight (58% RH, day 35): 1.7613 g
- change in starting weight (58% RH, day 42): +0.2511 g
- sample weight (58% RH, day 42): 1.7568 g
- Percent change based on average of final two weights (58% RH, monohydrate): +17%
- sample weight (75% RH, day 0 (starting weight), monohydrate): 1.5013 g
- change in starting weight (75% RH, day 1, monohydrate): +0.0470 g
- sample weight (75% RH, day 1, monohydrate): 1.5483 g
- change in starting weight (75% RH, day 2, monohydrate): +0.0930 g
- sample weight (75% RH, day 2, monohydrate): 1.5943 g
- change in starting weight (75% RH, day 3, monohydrate): +0.1386 g
- sample weight (75% RH, day 3, monohydrate): 1.6399 g
- change in starting weight (75% RH, day 4, monohydrate): +0.1819 g
- sample weight (75% RH, day 4, monohydrate): 1.6832 g
- change in starting weight (75% RH, day 5, monohydrate): +0.2205 g
- sample weight (75% RH, day 5, monohydrate): 1.7218 g
- change in starting weight (75% RH, day 6, monohydrate): +0.2552 g
- sample weight (75% RH, day 6, monohydrate): 1.7565 g
- change in starting weight (75% RH, day 7, monohydrate): +0.2874 g
- sample weight (75% RH, day 7, monohydrate): 1.7887 g
- change in starting weight (75% RH, day 8, monohydrate): +0.2752 g
- sample weight (75% RH, day 8, monohydrate): 1.7765 g
- change in starting weight (75% RH, day 10, monohydrate): +0.2725 g
- sample weight (75% RH, day 10, monohydrate): 1.7738 g
- change in starting weight (75% RH, day 11, monohydrate): +0.2768 g
- sample weight (75% RH, day 11, monohydrate): 1.7781 g
- change in starting weight (75% RH, day 12, monohydrate): +0.1796 g
- sample weight (75% RH, day 12, monohydrate): 1.7809 g
- change in starting weight (75% RH, day 13, monohydrate): +0.2678 g
- sample weight (75% RH, day 13, monohydrate): 1.7781 g
- change in starting weight (75% RH, day 14, monohydrate): +0.2755 g
- sample weight (75% RH, day 14, monohydrate): 1.7768 g
- change in starting weight (75% RH, day 15, monohydrate): +0.2755 g
- sample weight (75% RH, day 15, monohydrate): 1.7768 g
- change in starting weight (75% RH, day 16, monohydrate): +0.2761 g
- sample weight (75% RH, day 16, monohydrate): 1.7774 g
- change in starting weight (75% RH, day 17, monohydrate): +0.2741 g
- sample weight (75% RH, day 17, monohydrate): 1.7754 g
- Percent change based on average of final two weights (75% RH, monohydrate): +18%
- sample weight (84% RH, day 0 (starting weight), monohydrate): 1.5068 g
- change in starting weight (84% RH, day 1, monohydrate): +0.0595 g
- sample weight (84% RH, day 1, monohydrate): 1.5663 g
- change in starting weight (84% RH, day 2, monohydrate): +0.1159 g
- sample weight (84% RH, day 2, monohydrate): 1.6227 g
- change in starting weight (84% RH, day 3, monohydrate): +0.1762 g
- sample weight (84% RH, day 3, monohydrate): 1.6830 g
- change in starting weight (84% RH, day 4, monohydrate): +0.2309 g
- sample weight (84% RH, day 4, monohydrate): 1.7377 g
- change in starting weight (84% RH, day 5, monohydrate): +0.2801 g
- sample weight (84% RH, day 5, monohydrate): 1.7869 g
- change in starting weight (84% RH, day 6, monohydrate): +0.2965 g
- sample weight (84% RH, day 6, monohydrate): 1.8033 g
- change in starting weight (84% RH, day 7, monohydrate): +0.2910 g
- sample weight (84% RH, day 7, monohydrate): 1.7978 g
- change in starting weight (84% RH, day 8, monohydrate): +0.2932 g
- sample weight (84% RH, day 8, monohydrate): 1.8000 g
- change in starting weight (84% RH, day 10, monohydrate): +0.2997 g
- sample weight (84% RH, day 10, monohydrate): 1.8065 g
- change in starting weight (84% RH, day 11, monohydrate): +0.3062 g
- sample weight (84% RH, day 11, monohydrate): 1.8130 g
- change in starting weight (84% RH, day 12, monohydrate): +0.3099 g
- sample weight (84% RH, day 12, monohydrate): 1.8167 g
- change in starting weight (84% RH, day 13, monohydrate): +0.3090 g
- sample weight (84% RH, day 13, monohydrate): 1.8158 g
- change in starting weight (84% RH, day 14, monohydrate): +0.3055 g
- sample weight (84% RH, day 14, monohydrate): 1.8123 g
- change in starting weight (84% RH, day 15, monohydrate): +0.2996 g
- sample weight (84% RH, day 15, monohydrate): 1.8064 g
- change in starting weight (84% RH, day 16, monohydrate): +0.2961 g
- sample weight (84% RH, day 16, monohydrate): 1.8029 g
- change in starting weight (84% RH, day 17, monohydrate): +0.2916 g
- sample weight (84% RH, day 17, monohydrate): 1.7984 g
- Percent change based on average of final two weights (84% RH, monohydrate): +20%
- crystal form after completion of water uptake experiments (XRPD) (each humidity utilized): another hydrated crystal form was produced
- increase in weight at equilibrium (constant weight) (each humidity utilized): about 20%
